System: Glyphosate-sensitive Palmer amaranth (A. palmeri R-22) plants
Assay: Topical ssDNA HPPD oligonucleotide mixture with or without mesotrione or atrazine: plant height / growth reduction
Type: in vivo, Amaranthus palmeri
Conditions: twelve days after treatment
Protocol: Glyphosate-sensitive Palmer amaranth (A. palmeri R-22) plants were grown in the greenhouse (30/20 C day/night T; 14 hour photoperiod) in 4 inch square pots containing Sun Gro® Redi-Earth and 3.5 kg/cubic meter Osmocote® 14-14-14 fertilizer. Palmer amaranth plants at 5 to 10 cm in height were pre-treated with a mixture of eight 8 short (21-22mer) single-strand antisense oligo DNA polynucleotides (ssDNAas) targeting HPPD shown in Table 2 as HPPD_OLIGO1-8 (SEQ ID NO: 1083-1090, respectively) at two concentrations, 16 nmol and 80 nmol, formulated in 10 millimolar sodium phosphate buffer (pH 6.8) containing 2% ammonium sulfate and 0.5% Silwet L-77. Plants were treated manually by pipetting 10 μL of polynucleotide solution on four fully expanded mature leaves, for a total of 40 microliters of solution per plant. Twenty-four and forty-eight hours later, the plants were treated with mesotrione (Callisto®, 4 lb ai per gallon; HPPD inhibitor) at 13 g ai/ha, or atrazine (Aatrex® Nine-0®, 90% w/w ai; Photosystem II inhibitor) at 170 g ai/ha using a track-sprayer equipped with a 9501E nozzle and calibrated to deliver 93 liters of solution per hectare. […] Plant height was determined just before ssDNA treatment and at intervals upto twelve days after herbicide treatments to determine effect of the oligonucleotide and herbicide treatments.

Compound	control (growth reduction) (atrazine alone 170 g ai/ha) [%]	control (growth reduction) (mesotrione alone 13 g ai/ha) [%]
CCNc1nc(Cl)nc(NC(C)C)n1 [atrazine]	29	–
CS(=O)(=O)c1ccc(C(=O)C2C(=O)CCCC2=O)c([N+](=O)[O-])c1 [mesotrione]	–	48

Source: patent US20130097726A1, “METHODS AND COMPOSITIONS FOR WEED CONTROL” (priority 2011, published 2013)
